The subject of data set [1] is PIT-dependent promoters PPIR, PPIR2, PPIR3. Briefly: SEAP expression from modified PI-responsive promoters (PPIR, PPIR2, PPIR3). The class given is cell-based, Streptomyces coelicolor. The text has this:
The naturally occurring Pptr sequence contains only three distinct Pip binding sites which could accommodate PIT. In order to enhance maximal expression from streptogramin-responsive system, we constructed PI-responsive promoters with two (PPIR2) and three (PPIR3) ptr binding motifs with a total of 6 and 9 Pip binding sites, respectively.
Both DNA fragments were digested with AatII and Sse8387I (corresponding restriction sites are shown in bold) and ligated to the corresponding sites of pMF172 (PPIR -SEAP; AatII/Sse8387I) thereby replacing the single Pip binding sequence (Pptr of S. pristinaespiralis; Salah-Bey et al., 1995; Salah-Bey and Thompson, 1995) to result in plasmids pMF198 (PPIR2 -SEAP) and pMF199 (PPIR3 -SEAP). […]

The target in data set [2] is T1, Pip/PPIR ON (Streptomyces coelicolor, UniProt Q9ADN3).
T1 sequence (Q9ADN3 1-252): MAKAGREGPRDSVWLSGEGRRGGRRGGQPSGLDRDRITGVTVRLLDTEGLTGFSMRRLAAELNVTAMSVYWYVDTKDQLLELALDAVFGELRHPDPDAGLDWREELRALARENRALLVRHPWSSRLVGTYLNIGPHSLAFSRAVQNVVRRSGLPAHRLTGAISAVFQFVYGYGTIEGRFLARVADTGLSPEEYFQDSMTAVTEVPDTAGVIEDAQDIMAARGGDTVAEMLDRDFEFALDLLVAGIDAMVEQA
Type of data set: cell-based. The text has this: The Classical PIT/PPIR system belongs to the "OFF" family of regulation concepts since gene expression is activated upon withdrawal of the regulating antibiotic. However, in some applications such as gene therapy and tissue engineering an "ON" system which is induced upon addition of streptogramin antibiotics is more desirable. We therefore constructed a new Pip-based binary PION system which consists of a PPIR ON promoter and a set of two different transrepressors. PPIR ON consists of a PIR3 module containing 3 consecutive Pip binding elements (SEQ ID NO:21; Example 3) placed in front of the strong viral SV40 promoter. Transrepressors such as PIT3, which consists of a protein fusion between Pip and the KRAB silencing domain of the human kox-1 gene (Deuschle et al., 1995, Mol. Cell Biol. 15: 1907-1914) and PIT4, which is simply Pip expressed in a eukaryotic configuration, bind to PIR3 in front of PSV40 and block transcription of this promoter. Besides sterical transcription blocking the silencing domain of PIT3 can additionally downregulate PSV40 activity. […]
Table 9: Comparison of the regulation characteristics of the PipON systems. CHO-K1 cells were simultaneously cotransfected with the plasmids indicated and the SEAP readout (slope a of the p-nitrophenolphosphate-based light absorbance time courses) was determined in the presence and absence of pristinamycin 48 hr post transfection. […]
In order to assess the regulation potential of different streptogramin antibiotics, pMF225 or pMF150 encoding PIT4 were cotransfected with pMF208 (PPIR ON-SEAP) into CHO-K1 cells and the SEAP induction was measured 48 following transfection (as described above in Example 1) and addition of the following streptogramin antibiotics: (i) PI, the group B streptogramin component of pristinamycin; (ii) Pyostacin, the human oral antibiotic; (iii) Synercid, the first injectable semi-synthetic pristinamycin derivative effective against most multidrug resistant human pathogenic bacteria and (iv) virginiamycin used as growth promotant in livestock feed. […]

PIT-dependent promoters PPIR, PPIR2, PPIR3, sequence (as listed by the source): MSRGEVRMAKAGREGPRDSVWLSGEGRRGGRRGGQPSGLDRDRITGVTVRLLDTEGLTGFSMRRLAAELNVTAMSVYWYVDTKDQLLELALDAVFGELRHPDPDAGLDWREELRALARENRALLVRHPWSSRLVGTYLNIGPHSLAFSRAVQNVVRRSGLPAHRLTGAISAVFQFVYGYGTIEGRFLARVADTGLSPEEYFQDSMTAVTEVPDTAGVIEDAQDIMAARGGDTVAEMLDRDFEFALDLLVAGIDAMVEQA

Regarding pristinamycin I [PI], the entries for the “SEAP expression in the presence of PI” value in data set [1] (PPIR2 -SEAP (pMF198)), in data set [1] (PPIR2 -SEAP (pMF199) as printed) and in data set [1] (PPIR -SEAP (pMF172)) were 0.073 ± 0.004, 0.09 ± 0.008 and 0.04 ± 0.019, respectively. Besides, the “SEAP readout (slope of the p-nitrophenolphosphate-based light absorbance time courses)” value in data set [2] (+PI (2 μg/ml) column, CHO + pMF208 + pMF225, 48 hr post transfection) worked out at 0.019 ± 0.002. Besides, the “SEAP Production (slope of the p-nitrophenolphosphate-based light absorbance time courses)” value in data set [2] (CHO-K1 + pMF225 + pMF208, 2 μg/ml group B component, 48 hr post transfection) amounted to 0.65 ± 0.03. In addition, the Induction factor in data set [2] (PIT4-PPIR ON configuration (pMF225-pMF208)) worked out at 25.

The values above are taken from patent US6287813A, “Antibiotic-based gene regulation system” (Cistronics Cell Technology GmbH, priority 1999, dated 2001).
